Measured values published in article PMC7060258 (Scientific Reports, 2020).
No end group written: not given here.

Legend:
α-chymotrypsin = assay: Thermodynamic parameters of complexes with α-chymotrypsin; assay type: binding; conditions: complex with α-chymotrypsin, SPR
Description: (§1) The magnitudes of free energy change (∆G) of the complexes differed slightly from the same complexes of HCRG1 and HCRG2 and were lower than for the InhVJ ones.
The study of the interaction of serine proteinases with rHCIQ2c1 and rHCIQ4c7 was performed on SPR biosensor Biacore 3000 (GE Healthcare, USA) running under the program “Biacore 3000 Control Software v.1.0”. The evaluation of data was carried out using “Biacore Evaluation v.4.1”. Peptides were covalent immobilized on carboxymethylated surface of the Biacore CM4 sensor chip (GE Healthcare, USA) activated by EDC/NHS (N-hydroxysuccinimide/1-ethyl-3-(3-dimethylaminopropyl)carbodiimide hydrochloride) mixture by the injection of peptide solution (100 µg/ml) in 10 mM sodium acetate (pH 5.5) during 10 min with flow rate 5 µl/min. Quantities of immobilized peptides were 970 RU (resonance units, 1 RU corresponds 1 pg peptide) for rHCIQ2c1 and 460 RU for rHCIQ4c7. In all of the experiments, the flow cell 1 (Fc1) without the immobilized polypeptides was considered as the reference cell for the correction of the signal responses. HBS (HEPES buffered saline-NaCl): 0.15 M NaCl, 0.01 M HEPES, pH 7.4 (cat. no. BR-1003-69, GE Healthcare, USA) was used as the running buffer for the SPR assays. Protease solutions at concentrations from 1 nM to 5 μM were passed through measuring and control biosensor cells at 25 °C during 5 min with a flow rate 5 µl/min. Further complex breakdown was recorded during at most 10 min. After each cycle of SPR measurement, the sensing surface was regenerated by the injection of 50 mM NaOH for 0.5 min at a flow rate of 50 μl/min. Changes in Gibbs free energy (ΔG) at 25 °C were calculated by the following equation:1 ΔG=RTlnKD, where KD is the dissociation constant. Changes in enthalpy (ΔH) and entropic term (−TΔS) were calculated from the linear equation:2 ΔG=ΔH−TΔS, using the liner approximation of temperature dependence of ΔG (Van’t Hoff diagram).

trypsin [1] = assay: Thermodynamic parameters of complexes with trypsin; assay type: binding; conditions: complex with trypsin, SPR
Description: as §1
The study of the interaction of serine proteinases with rHCIQ2c1 and rHCIQ4c7 was performed on SPR biosensor Biacore 3000 (GE Healthcare, USA) running under the program “Biacore 3000 Control Software v.1.0”. The evaluation of data was carried out using “Biacore Evaluation v.4.1”. Peptides were covalent immobilized on carboxymethylated surface of the Biacore CM4 sensor chip (GE Healthcare, USA) activated by EDC/NHS (N-hydroxysuccinimide/1-ethyl-3-(3-dimethylaminopropyl)carbodiimide hydrochloride) mixture by the injection of peptide solution (100 µg/ml) in 10 mM sodium acetate (pH 5.5) during 10 min with flow rate 5 µl/min. Quantities of immobilized peptides were 970 RU (resonance units, 1 RU corresponds 1 pg peptide) for rHCIQ2c1 and 460 RU for rHCIQ4c7. In all of the experiments, the flow cell 1 (Fc1) without the immobilized polypeptides was considered as the reference cell for the correction of the signal responses. […] Further complex breakdown was recorded during at most 10 min. […] Changes in enthalpy (ΔH) and entropic term (−TΔS) were calculated from the linear equation:2 ΔG=ΔH−TΔS, using the liner approximation of temperature dependence of ΔG (Van’t Hoff diagram).

[2] = test system: murine neuroblastoma Neuro2a cells; assay: Intracellular ROS formation level (H2DCF-DA); assay type: cell-based
Description: We estimated whether rHCIQ2c1 is able to inhibit reactive oxygen species (ROS) production. After incubation of Neuro2a cells with rHCIQ2c1 (up to 10 µM) and 6-OHDA (25 µM), ROS content was evaluated by measurement of dichlorofluorescin intensity.
The intracellular ROS level was detected using 2,7-dichlordihydrofluorescein diacetate (H2DCF-DA) solution (Molecular Probes, final concentration 10 µM). In this study, mouse neuroblastoma Neuro2a cells seeded on 96-well plates were washed twice with serum-free DMEM and thereafter incubated for 1 h in serum-free MEM medium in the presence of compounds in concentrations from 10 pM to 10 µM. Cell were treated with 6-OHDA (25 μM) for 30 min at 37 °C with 5% CO2. Followed by treatment with 6-OHDA, the cells were washed once with PBS. After washing with serum-free DMEM medium, the cells were loaded with H2DCF-DA for 30 min. The intensity of dichlorofluorescin fluorescence was measured with plate reader PHERAstar FS (BMG Labtech, Germany) at λex = 485 nm and λem = 518 nm. The cytoprotective effect of peptides and the increase in cell viability under their action was calculated as a percentage, taking the cell viability treated with 6-OHDA as 100%.

trypsin [3] = assay: Trypsin inhibitory activity (BAPNA, Dixon); assay type: biochemical; conditions: BAPNA 0.6 and 1.2 mM, Dixon method; trypsin 208 nM; peptide 0–26.6 µM (rHCIQ2c1), 0–24 µM (rHCIQ4c7); three parallel experiments; error limits 0.1–0.5%
Description: The trypsin inhibitory activity of HCIQ peptides was estimated according to the standard procedure using N-α-benzoyl-D,L-arginine p-nitroanilide (BAPNA) as a substrate. The trypsin inhibition constants of rHCIQ2c1 and rHCIQ4c7 were determined by the method of Dixon[74] using substrate (BAPNA) concentrations of 0.6 and 1.2 mM. The trypsin concentration in the reaction mixture was 208 nM. The range of peptide concentrations was 0–26.6 µM for rHCIQ2c1 and 0–24 µM for rHCIQ4c7. The constants (Ki) were calculated based on the results of three parallel experiments. Computational error limits were in the range of 0.1–0.5%.

Row | Substance | T∆S, entropic term (α-chymotrypsin; 10–40 °С, Van't Hoff diagram) [kcal/mol] | ∆H, enthalpy change (α-chymotrypsin; 10–40 °С, Van't Hoff diagram) [kcal/mol] | ∆G, Gibbs energy change (α-chymotrypsin; 25 °C, ΔG=RTlnKD) | ∆H, enthalpy change (trypsin [1]; 10–40 °С, Van't Hoff diagram) [kcal/mol] | ∆G, Gibbs energy change (trypsin [1]; 25 °C, ΔG=RTlnKD) | Reduction of ROS production ([2]; 0.001–0.01 µM peptide, pretreatment 1 h, 6-OHDA 25 µM 30 min, dichlorofluorescin fluorescence) [%] | Concentration dependence of ROS level ([2]; up to 10 µM peptide, 6-OHDA 25 µM) | Ki (trypsin [3]) [µM]
1 | rHCIQ2c1: recombinant Kunitz-peptide of Heteractis crispa, most prevalent isoform, mature peptide 58 aa, expressed in E. coli (IQGNICSEPKKVGRCRGSFPRFYFDSETGKCTPFIYGGCGGNGNNFETLHACRAICRA; ends and bridges not checked; cysteine pairing not given here) | 15.12 | 4.68 | –43.70 kJ/mol | 17.28 | –54.70 kJ/mol | 34 | An increase in ROS formation when the concentration of rHCIQ2c1 increases from 0.01 to 1 µM, and its decrease again at 10 µM | –
2 | rHCIQ4c7: recombinant Kunitz-peptide of Heteractis crispa, isoform with the rare substitution Gly17Glu | – | – | – | – | – | – | – | 0.19
